Laboratory results as given in PubChem BioAssay (NCI).
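These data come from cells grown in 96-well plates and exposed to compound for 48 hours at five concentrations. At the TGI there is no net growth.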

What was measured:
Assay in all cases: NCI anticancer screen, dose series, 48 h
BT-549 breast = test system: BT-549 breast
OVCAR-8 ovarian = test system: OVCAR-8 ovarian
SNB-75 CNS = test system: SNB-75 CNS
MDA-MB-231 breast = test system: MDA-MB-231 breast
OVCAR-4 ovarian = test system: OVCAR-4 ovarian
HT29 colon = test system: HT29 colon
UACC-62 melanoma = test system: UACC-62 melanoma
SK-MEL-5 melanoma = test system: SK-MEL-5 melanoma
UO-31 renal = test system: UO-31 renal
KM12 colon = test system: KM12 colon
SR leukemia = test system: SR leukemia
SF-268 CNS = test system: SF-268 CNS

| SMILES | TGI (BT-549 breast) [µM] | TGI (OVCAR-8 ovarian) [µM] | TGI (SNB-75 CNS) [µM] | TGI (MDA-MB-231 breast) [µM] | TGI (OVCAR-4 ovarian) [µM] | TGI (HT29 colon) [µM] | TGI (UACC-62 melanoma) [µM] | TGI (SK-MEL-5 melanoma) [µM] | TGI (UO-31 renal) [µM] | TGI (KM12 colon) [µM] | TGI (SR leukemia) [µM] | TGI (SF-268 CNS) [µM] |
| --- | --- | --- | --- | --- | --- | --- | --- | --- | --- | --- | --- | --- |
| CC/C=C(\C(=C/CC)[N+](=O)[O-])[N+](=O)[O-] | 32.2 | 39 | > 100 | 36.2 | 45.7 | 31.9 | 33.6 | 47.9 | 33 | – | – | – |
| COC(=O)N1CC2C3C4CC(C(c5ccccc5)=C4c4ccccc4)C3C21 (stereo unspecified) | 31.4 | 35.7 | 76.4 | 22.3 | 29.5 | 37.7 | 27 | 25.9 | 26 | 34.2 | 51.1 | 33.7 |
